Reference: US20060269924A1, “Modulation of telomere-initiated cell signaling” (TRUSTEES OF BOSTON UNIVERSITY, priority 2003, published 2006)
{P} = phosphate

Columns and labels:
[1] = tested on: HT-1080 fibrosarcoma cells; assay: Telomere length (mean TRF length) assay; assay type: cell-based, human; details: HT-1080 cells, 40 μM, 4 days
Procedure: Cells were treated as described in FIG. 13a. Lanes 1, 2, 3 contain genomic DNA from cells treated with diluent (D), T-oligo (T), or complementary oligo (C). Lanes 4 and 5 contain high (H) molecular and low (L) molecular weight standard telomeric DNA.
HT-1080 fibrosarcoma cells were treated with diluent, 40 μM T-oligo or 40 μM complementary oligo for 4 days and then the genomic DNA was isolated using the DNeasy Tissue Kit (Qiagen, Valencia, Calif.). Telomere length was determined using the Telo TTAGGG Telomere Length Assay (Roche Molecular Biochemicals, Indianapolis, Ind.) following the protocol supplied by the manufacturer. […] Terminal restriction fragments (TRF) were detected by chemiluminescence. The mean TRF length was calculated by scanning the exposed X-ray film with a densitometer and calculated as previously described (Harley et al. [1990] Telomeres shorten during ageing of human fibroblasts. Nature 345, 458-460).
To determine the affect of T-oligos on the mean telomere length (MTL) in HT-1080 cells, cells were analyzed after treatment with T-oligo for 4 days which corresponded to the time that the senescent phenotype was readily observed. […] The less than 100 bp difference in calculated MTL is within the range of experimental variation and is not significant.

[2] = tested on: HT-1080 human fibrosarcoma cells; assay: Clonogenic assay; assay type: cell-based; details: HT-1080, 40 μM for one week, then replated 2 weeks without treatment
Procedure: Cells were treated with diluent, 40 μM T-oligo or complementary oligo for one week, and then assayed. FIG. 15a: Appearance of stained dishes. FIG. 15b: Quantification of clonogenic capacity. Colonies of triplicate cultures were counted and plotted as percentage of diluent treated control.
Human fibrosarcoma cells were treated with diluent alone, 40 μM T-oligo or 40 μM complementary oligo for one week and were then trypsinized and counted. 300 cells were seeded into 60 mm culture dishes in triplicate and then incubated in complete medium for 2 weeks with medium changed twice per week. Subsequently, the cells were fixed for 5 min in 100% methanol. The methanol was then removed and the culture dishes were rinsed briefly with water. The colonies were stained for 10 min in 4% (w/v) methylene blue solution in PBS, washed once again with water, and then counted.
To determine the long-term effect of T-oligo treatment on cell growth, HT-1080 human fibrosarcoma cells were treated with either diluent alone, 40 μM T-oligo or 40 μM complementary control oligo for one week and then an equal number of cells were replated and medium was changed twice per week for 2 weeks with no further treatment, and then stained with methylene blue (FIG. 15a).

[3] = tested on: HT-1080 fibrosarcoma cells; assay: BrdU incorporation assay, HT-1080 cells; assay type: cell-based, human; details: HT-1080 cells, 40 μM, 4 days
Procedure: (§1) FIG. 13a: Exposure to T-oligo increases SA-β-Gal activity. HT-1080 cells were treated for 4 days with diluent alone or 40 μM T-oligo or the complementary control oligo, then stained and assayed for SA-β-Gal activity. FIG. 13b: Quantitative analysis of SA-β-Gal positive cells. Cells expressing SA-β-Gal activity were counted and presented as percentage of total cells in the cultures. Averages and standard deviations were calculated from 3 representative fields from each of 3 independent experiments. FIG. 13c: Effect of T-oligo on cell proliferation. Cells were treated for 4 days as in FIG. 12 and assayed for DNA synthesis by BrdU incorporation. FIG. 13d: Quantitative analysis of BrdU incorporation. Dark black nuclei indicate BrdU incorporated into nuclear DNA. BrdU positive cells were calculated and presented as percentage of total cells in the cultures. Averages and standard deviations were calculated from 3 representative fields from each of 3 independent experiments. FIG. 13e: Effect of T-oligo on pRb phosphorylation. Cells were treated as in FIG. 13a and were then collected for protein analysis by western blot using 30 μg total protein and probed for pRb-ser780*, ser795* and ser807/811* (pRb phosphorylated at serine 780, serine 795 and serine 807/811 respectively). Lanes D, T and C contain protein samples from cells treated with diluent, T-oligo and complementary oligo respectively. β-actin was used as a loading control.
Parallel cultures were treated as described in FIG. 13a. Cells were then washed once with PBS and refed with complete medium without additional treatment for 24 hours or 48 hours. FIG. 14a: SA-β-Gal activity. […]
HT-1080 fibrosarcoma cells cultured on Permanox chamber slides were treated with diluent, 40 μM T-oligo or 40 μM complementary oligo for 4 days and DNA synthesis was assayed using 5-bromo-2′-deoxy-uridine (BrdU) Labeling and Detection Kit II (Roche Molecular Biochemicals, Indianapolis, Ind.) following the protocol supplied by the manufacturer. […] After incubation with anti-mouse-Ig-alkaline phosphatase, the color reaction was detected by light microscopy. […]

[4] = tested on: human fibrosarcoma HT-1080 cells; assay: SA-β-Gal staining, HT-1080 cells; assay type: cell-based; details: HT-1080 cells, 40 μM, 4 days
Procedure: as §1
Parallel cultures were treated as described in FIG. 13a. Cells were then washed once with PBS and refed with complete medium without additional treatment for 24 hours or 48 hours. FIG. 14a: SA-β-Gal activity. Cells were stained for SA-β-Gal activity. […]
TRF2^DN has been reported to induce a senescent phenotype in human fibrosarcoma HT-1080 cells. To determine whether exposure to the telomere 3′ overhang DNA (T-oligo) also induces senescence in these cells, HT-1080 cells (American Type Culture Collection; Manassas, Va.) were treated with either diluent alone, T-oligo or the complementary oligo as a control, for 4 days and then assessed for SA-β-Gal activity. […]

[5] = tested on: p95 phosphorylated at serine 343; assay: p95 serine 343 phosphorylation after tankyrase siRNA, western blotting and densitometry; assay type: cell-based, human; details: 24 hours
Procedure: Paired cultures of human fibroblasts were treated once with tankyrase siRNA, with a non-specific siRNA (control) or were mock transfected as a second control. […] After an additional 24 hours, cells were collected and processed for western blotting using an antibody specific for p95 phosphorylated at serine 343, indicating p95 modification by activated ATM kinase. The film was then subjected to densitometry and the diluent control for each group of cells was set at 1.0 in arbitrary units (FIG. 19). As expected, in cells with normal tankyrase levels the T-oligo treated cells had twice the amount of phosphorylated p95, while the control oligo-treated or diluent-treated cells had only a 30-40% increase.

S91 mouse melanoma cells = assay: Melanin content of S91 melanoma cells; assay type: cell-based; details: 100 μM
Procedure: Cultures of S91 mouse melanoma cells (100,000 cells/38 cm^2) were treated with 100 μM pTpT or phosphorothioate pTpT (pTspT) (FIG. 4) or 40 μM 11mer-1 or the phosphorothioate 11mer-1 (11mer-1-S) (FIG. 5) for 6 days and were then collected, counted and assayed for melanin content.
(§2) Duplicate cultures of S91 cells (100,000 cells/39 cm^2) were either sham-irradiated or irradiated with 5 mJ/cm^2 solar-simulated light from a 1 kW xenon arc solar-simulator (XMN 1000-21, Optical Radiation, Azuza, Calif.) metered at 285±5 nm using a research radiometer (model IL1700A, International Light, Newburyport, Mass.). Two sham-irradiated plates were then supplemented with 100 μM pTspT and two irradiated cultures were similarly treated with pTspT. After one week, cells were collected, counted and analyzed for melanin content by dissolving the cell pellets in 1 N NaOH and measuring the optical density at 475 nm. […] However, this response was blocked by the addition of pTspT (FIG. 6). In addition, the constitutive pigmentation of these cells was reduced by the pTspT in the sham-irradiated cultures, similar to the data presented in FIGS. 4 and 5.

S91 cells = assay: UV-induced melanogenesis in S91 cells; assay type: cell-based, mouse; details: 5 mJ/cm^2 solar-simulated light, 100 μM, one week
Procedure: as §2

[6] = tested on: T-oligo-induced total p53, p21, p53 serine 15 phosphorylation; assay: PARP inhibitor pretreatment and T-oligo responses, western blot; assay type: cell-based; details: fibroblasts, 40 μM T-oligo, 48 hours; 3AB 2.5 mM or IQ 100 μM
Procedure: To investigate the role of PARPs in responses to T-oligo, fibroblasts were pretreated with one of two different PARP inhibitors, 3-aminobenzamide (3AB, 2.5 mM) or […] (IQ, 100 μM) for 2 hours before addition of 40 μM T-oligo or an equal amount of diluent as a control. An additional dose of each inhibitor was given to the cells 4 hours after addition of the T-oligo or diluent (D). Fibroblasts were treated with 3AB and T-oligo, then collected 48 hours later for western blot. T-oligo-induced upregulation of total p53, p21, phosphorylation of p53 serine 15 (indicating p53 activation) were all reduced in the presence of 3AB (FIG. 17A).

[7] = tested on: p53 serine 15 phosphorylation and p21 induction in response to TRF2^DN; assay: PARP inhibitors and response to TRF2^DN, western analysis; assay type: cell-based; details: neonatal fibroblasts, AdTRF2DN, 3 days; 3AB 2.5 mM or IQ 100 μM
Procedure: The graphs show densitometric readings of the western blots, with diluent control set at 100%. FIG. 9f: Lane 1, diluent, GFP; lane 2, diluent TRF2DN; lane 3, 3AB, GFP; lane 4, 3AB, TRF2DN; lane 5, IQ, GFP; lane 6, IQ, TRF2DN.
Neonatal fibroblasts were treated with AdTRF2DN or AdGFP as a negative control. Two hours before infection, cells were treated with either diluent 3AB (2.5 mM) or IQ (100 μM). After 3 days cells were collected for western analysis for the c-myc-tagged TRF2DN (to confirm infection), p53 serine 15 phosphorylation and p21 induction.

pCTAACCCTAAC (DNA, 5' {P}, backbone and methylation of C not given here; listed as Homo sapiens) [Oligonucleotide 11mer-2, reference compound]
mean telomere length (MTL) [1]: 5.51 kb
clonogenic capacity [2]: 90.5±9.4 % of diluent treated control
BrdU incorporation (BrdU positive cells) [3]: 85±10%
SA-β-Gal positive cells [4]: 6±3%
increase in phosphorylated p95 ([5]; human fibroblasts with normal tankyrase levels): 30-40%
level of p95 phosphorylation (densitometry, diluent control set at 1.0) ([5]; tankyrase knockdown group (tankyrase siRNA)): 1.3 arbitrary units

pTspT
constitutive pigmentation (S91 mouse melanoma cells; 6 days): reduced the constitutive pigmentation
melanogenesis (melanin content) (S91 mouse melanoma cells; 6 days): did not
constitutive pigmentation (S91 mouse melanoma cells; sham-irradiated, one week): reduced
UV-induced doubling of melanin content (S91 cells): blocked

NC(=O)c1cccc(N)c1 [Oligonucleotide 3AB, 3-aminobenzamide]
T-oligo-induced phosphorylation of p53 serine 15 [6]: reduced
T-oligo-induced upregulation of p21 [6]: reduced
T-oligo-induced upregulation of total p53 [6]: reduced
p21 induction in response to TRF2^DN [7]: reduced
p53 phosphorylation in response to TRF2^DN [7]: reduced

pTpT
melanogenesis (melanin content) (S91 mouse melanoma cells; 6 days): stimulated melanogenesis
